The record followed here is patent US11453666B2, “Autotaxin inhibitory compounds” (Cancer Research Technology Limited, priority 2015, dated 2022).

Like-named read-outs stand apart in the source and are kept apart here.

The test addresses human recombinant ATX (Homo sapiens, UniProt Q13822). As to the kind of experiment: Autotaxin (ATX) activity Quanta Red assay. Type of test: biochemical. The method, then: The reaction was stopped after 2 hours with a 20 μL addition of Quanta Red Stop solution (1:20 dilution in distilled water). The above-described mixture with DMSO alone was used as a positive control whereas that with DMSO alone without ATX was taken as a negative control.
Fluorescence was determined in a BMG Labtech Pherastar plus plate reader ([…]). Data were analysed using Excel fit software. IC50 values were determined in duplicate.

The mark [1] stands for this setting: read-out: Activity (ATX activity, Quanta Red assay; IC50).
The mark [2] stands for this setting: Table 2: additional compounds tested for ATX activity (Quanta Red Assay), read-out: Activity.

Consider `C[C@@H]1CN(c2ccc([C@H](C)NC(=O)CCc3nc4cccnc4n3Cc3ccc(OC(F)(F)F)cc3)cc2)CCN1` [Example 174, N-{(S)-1-[4-((R)-3-Methyl-piperazin-1-yl)-phenyl]-ethyl}-3-[3-(4-trifluoromethoxy-benzyl)-3H-imidazo[4,5-b]pyridin-2-yl]-propionamide], for which, under setting [1], the IC50 was found to be 2 nM.
Consider `O=C(CCc1nc2cccnc2n1Cc1ccc(OC(F)(F)F)cc1)NCc1ccc(OC(F)(F)F)cc1` [Example 22, N-(4-Trifluoromethoxy-benzyl)-3-[3-(4-trifluoromethoxy-benzyl)-3H-imidazo[4,5-b]pyridin-2-yl]-propionamide], for which, under setting [1], the IC50 was 4 nM.
On the same count and under the same terms, the figure for `O=C(CCc1nc2cccnc2n1Cc1ccc(OC(F)(F)F)cc1)NCC1CCOCC1` [Example 62, N-(Tetrahydro-pyran-4-ylmethyl)-3-[3-(4-trifluoromethoxy-benzyl)-3H-imidazo[4,5-b]pyridin-2-yl]-propionamide] is 125 nM.
For `C[C@H](NC(=O)CCc1nc2cc(Br)cnc2n1Cc1ccc(F)cc1)c1ccc(Cl)cc1` [Example 70, 3-[6-Bromo-3-(4-fluoro-benzyl)-3H-imidazo[4,5-b]pyridin-2-yl]-N-[(S)-1-(4-chloro-propionimide)]], the IC50 under setting [1] was 242 nM.
On the same count and under the same terms, for `O=C(CCc1nc2cccnc2n1Cc1ccc(F)c(F)c1)NCc1ccc(OC(F)(F)F)cc1` [Example 57, 3-[3-(3,4-Difluoro-benzyl)-3H-imidazo[4,5-b]pyridin-2-yl]-N-(4-trifluoromethoxy-benzyl)-propionamide] the value was 58 nM.
With `Cc1ccc2nc(CCC(=O)N[C@@H](C)c3ccc(Cl)cc3)n(Cc3ccc(F)cc3)c2n1` [Example 79, N-[(S)-1-(4-Chloro-phenyl)-ethyl]-3-[3-(4-fluoro-benzyl)-5-methyl-3H-imidazo[4,5-b]pyridin-2-yl]-propionamide], under setting [1], the IC50 is 94 nM.
The same measure, in the same setting: for `COc1ccc(Cn2c(CCC(=O)NCCc3ccc(C)cc3)nc3cccnc32)cc1` [Example 108, 3-[3-(4-Methoxy-benzyl)-3H-imidazo[4,5-b]pyridin-2-yl]-N-(2-p-tolyl-ethyl)-propionamide] the value was 180 nM; for `CC(NC(=O)CCc1nc2cccnc2n1Cc1ccc(OC(F)(F)F)cc1)C1CCOCC1` (centres unmarked) [Example 56, N-[1-(Tetrahydro-pyran-4-yl)-ethyl]-3-[3-(4-trifluoromethoxy-benzyl)-3H-imidazo[4,5-b]pyridin-2-yl]-propionamide], 45 nM.
Turning to `O=C(CCc1nc2cccnc2n1Cc1ccc(OC(F)(F)F)cc1)N[C@H](CO)Cc1ccccc1` [Example 204, N-((S)-1-Hydroxymethyl-2-phenyl-ethyl)-3-[3-(4-trifluoromethoxy-benzyl)-3H-imidazo[4,5-b]pyridin-2-yl]-propionamide], the IC50 under setting [1] turned out to be 89 nM.
Still for that read-out and setting: for `O=C(CCc1nc2cccnc2n1Cc1ccc(OC(F)(F)F)cc1)N[C@@H]1c2ccccc2C[C@H]1O` [Example 9, N-((1R,2R)-2-Hydroxy-indan-1-yl)-3-[3-(4-trifluoromethoxy-benzyl)-3H-imidazo[4,5-b]pyridin-2-yl]-propionamide] the value was 1 nM; for `COc1ccc(Cn2c(CCC(=O)NCc3ccc4c(ccn4C)c3)nc3cccnc32)cc1` [Example 105, 3-[3-(4-Methoxy-benzyl)-3H-imidazo[4,5-b]pyridin-2-yl]-N-(1-methyl-1H-indol-5-ylmethyl)-propionamide], 88 nM.
Turning to `COc1ccc(CNC(=O)CCc2nc3cccnc3n2Cc2ccc(OC)cc2)cc1` [Example 222, N-(4-Methoxy-benzyl)-3-[3-(4-methoxy-benzyl)-3H-imidazo[4,5-b]pyridin-2-yl]-propionamide], the IC50 under setting [2] came out at 193 nM.
On to `C[C@H](NC(=O)CCc1cc2cc(F)cnc2n1Cc1ccc(OC(F)(F)F)cc1)c1ccc(F)cc1` [Example 139, N-[(S)-1-(4-Fluoro-phenyl)-ethyl]-3-[5-fluoro-1-(4-trifluoromethoxy-benzyl)-1H-pyrrolo[2,3-b]pyridin-2-yl]-propionamide], for which the IC50 under setting [1] was found to be 13 nM.
Still for that read-out and setting: the figure for `COc1cccc([C@H](C)NC(=O)NCc2nc3cccnc3n2Cc2ccc(F)cc2)c1` [Example 165, 1-[3-(4-Fluoro-benzyl)-3H-imidazo[4,5-b]pyridin-2-ylmethyl]-3-[(S)-1-(3-methoxy-phenyl)-ethyl]-urea] is 514 nM; for `C[C@H](NC(=O)CCc1nc2cccnc2n1Cc1ccc(F)cc1)c1ccccn1` [Example 68, 3-[3-(4-Fluoro-benzyl)-3H-imidazo[4,5-b]pyridin-2-yl]-N-((S)-1-pyridin-2-yl-ethyl)-propionamide] it is 212 nM.
On to `COc1ccc(CNC(=O)CCc2nc3cccnc3n2Cc2ccccc2)cc1` [Example 238, 3-(3-Benzyl-3H-imidazo[4,5-b]pyridin-2-yl)-N-(4-methoxy-benzyl)-propionamide, reference compound], for which, for the setting “Table 3: commercially available compounds tested for Autotaxin activity (Quanta Red assay), read-out: Activity”, the IC50 amounted to 473 nM.
Consider `O=C(CCc1nc2cccnc2n1Cc1ccc(OC(F)(F)F)cc1)NCC1CCN(C(=O)C2CC2)CC1` [Example 215, N-(1-Cyclopropanecarbonyl-piperidin-4-ylmethyl)-3-[3-(4-trifluoromethoxy-benzyl)-3H-imidazo[4,5-b]pyridin-2-yl]-propionamide], for which the IC50 under setting [1] turned out to be 81 nM.
Still for that read-out and setting: the figure for `C[C@H](NC(=O)CCc1nc2cccnc2n1Cc1ccc(OC(F)(F)F)cc1)c1ccc(N2CCN[C@@H](C)C2)cc1` [Example 176, N-{(S)-1-[4-((S)-3-Methyl-piperazin-1-yl)-phenyl]-ethyl}-3-[3-(4-trifluoromethoxy-benzyl)-3H-imidazo[4,5-b]pyridin-2-yl]-propionamide] is 3 nM; for `O=C(CCc1nc2ccncc2n1Cc1ccc(OC(F)(F)F)cc1)NC(CO)c1ccc(OC(F)(F)F)cc1` (centres unmarked) [Example 126, N-[2-Hydroxy-1-(4-trifluoromethoxy-phenyl)-ethyl]-3-[3-(4-trifluoromethoxy-benzyl)-3H-imidazo[4,5-c]pyridin-2-yl]-propionamide] it is 11 nM; for `COc1ccc(CNC(=O)CCc2nc3cccnc3n2Cc2cccc(OC(F)(F)F)c2)cc1` [Example 98, N-(4-Methoxy-benzyl)-3-[3-(3-trifluoromethoxy-benzyl)-3H-imidazo[4,5-b]pyridin-2-yl]-propionamide] it is 45 nM.
As for `COc1ccc(Cn2c(CCC(=O)N(C)Cc3ccc(F)cc3)nc3cccnc32)cc1` [Example 119, N-(4-Fluoro-benzyl)-3-[3-(4-methoxy-benzyl)-3H-imidazo[4,5-b]pyridin-2-yl]-N-methyl-propionamide], the IC50 under setting [1] turned out to be 631 nM.
Consider `C[C@H](NC(=O)C[S+]([O-])c1nc2cccnc2n1Cc1ccc(OC(F)(F)F)cc1)c1ccc(F)cc1` (single isomer, unassigned) [Example 149], for which the IC50 (human recombinant ATX 0.8 μg/mL, 2 hours at room temperature, IC50 determined in duplicate, read-out: Activity (ATX activity, Quanta Red assay; IC50)) is 178 nM.
Turning to `C[C@H](NC(=O)CCc1nc2cccnc2n1Cc1ccc(OC(F)(F)F)cc1)c1ccccn1` [Example 29, N-((S)-1-Pyridin-2-yl-ethyl)-3-[3-(4-trifluoromethoxy-benzyl)-3H-imidazo[4,5-b]pyridin-2-yl]-propionamide], the IC50 under setting [1] turned out to be 5 nM.
Same read-out and setting: the figure for `C[C@H](NC(=O)CCc1nc2cccnc2n1Cc1ccc(F)cc1)c1ccc(N2CCCCC2)cc1` [Example 186, 3-[3-(4-Fluoro-benzyl)-3H-imidazo[4,5-b]pyridin-2-yl]-N-[(S)-1-(4-piperidin-1-yl-phenyl)-ethyl]-propionamide] is 13 nM; for `CCN(CC)Cc1ccc([C@H](C)NC(=O)CCc2nc3cccnc3n2Cc2ccc(F)c(F)c2)cc1` [Example 207, N-[(S)-1-(4-Diethylaminomethyl-phenyl)-ethyl]-3-[3-(3,4-difluoro-benzyl)-3H-imidazo[4,5-b]pyridin-2-yl]-propionamide] it is 25 nM; for `C[C@H](NC(=O)OCc1nc2cccnc2n1Cc1ccc(F)cc1)c1ccc(F)cc1` [Example 166, [(S)-1-(4-fluoro-phenyl)-ethyl]-carbamic acid 3-(4-fluoro-benzyl)-3H-imidazo[4,5-b]pyridin-2-ylmethyl Ester] it is 336 nM.
For the molecule `O=C(CCc1nc2cccnc2n1Cc1ccccc1OC(F)(F)F)NCc1ccc(OC(F)(F)F)cc1` [Example 120, N-(4-Trifluoromethoxy-benzyl)-3-[3-(2-trifluoromethoxy-benzyl)-3H-imidazo[4,5-b]pyridin-2-yl]-propionamide], the IC50 under setting [1] is 292 nM.
On to `Cc1cnc2c(c1)nc(CCC(=O)N[C@@H](C)c1ccc(N3CCCNCC3)cc1)n2Cc1ccc(OC(F)(F)F)cc1` [Example 191, N-[(S)-1-(4-[1,4]Diazepan-1-yl-phenyl)-ethyl]-3-[6-methyl-3-(4-trifluoromethoxy-benzyl)-3H-imidazo[4,5-b]pyridin-2-yl]-propionamide], for which, under setting [1], the IC50 is 25 nM.
Still for that read-out and setting: for `O=C(CCc1nc2cccnc2n1Cc1ccc(OC(F)(F)F)cc1)N[C@H]1CCc2ccccc21` [Example 25, N-(S)-Indan-1-yl-3-[3-(4-trifluoromethoxy-benzyl)-3H-imidazo[4,5-b]pyridin-2-yl]-propionamide] the value was 4 nM.
On to `COc1ccc(Cn2c(CCC(=O)NCc3ccc(C)cc3)nc3cccnc32)cc1` [Example 220, 3-[3-(4-Methoxy-benzyl)-3H-imidazo[4,5-b]pyridin-2-yl]-N-(4-methyl-benzyl)-propionamide], for which the IC50 under setting [2] is 125 nM.
As for `CC(Sc1nc2cccnc2n1Cc1ccc(OC(F)(F)F)cc1)C(=O)N[C@@H](CO)c1ccccc1` (stereo partly drawn) [Example 154, N—((R)-2-hydroxy-1-phenyl-ethyl)-2-[3-(4-trifluoromethoxy-benzyl)-3H-imidazo[4,5-b]pyridin-2-ylsulfanyl]-propionamide], under setting [1], the IC50 was determined as 11 nM.
On the same count and under the same terms, for `Cc1ccccc1CNC(=O)CCc1nc2cccnc2n1Cc1ccccc1` [Example 5, 3-(3-Benzyl-3H-imidazo[4,5-b]pyridin-2-yl)-N-(2-methyl-benzyl)-propionamide] the value was 854 nM.
